Results from patent US11691977B2, “Cyclic ether derivatives of pyrazolo[1,5-A]pyrimidine-3-carboxyamide” (Boehringer Ingelheim International GmbH, priority 2015, dated 2023).

Tests used:
PDE 2A = PDE 2A (Homo sapiens (Human), UniProt O00408); test: Phosphodiesterase (PDE) 2A assay with fluorescent substrate (IMAP, fluorescence polarization); assay type: biochemical; conditions: PDE2A, read-out: PDE2 IC50
Protocol: (§1) The IMAP system (Molecular Device) using fluorescence polarization (FP) as detection principle was used to measure enzyme activity. A fluorescent labeled cAMP was used as substrate for the reaction, generating a labeled AMP. The fluorescent AMP binds specifically to the large M(III)-based nano-particles which reduces the rotational speed of the substrate and thus increases its polarization. Detailed Method: The inhibition of PDE 2A or 10 enzyme activity was assessed using IMAP-Phosphodiesterase-cAMP fluorescence labeled substrate (Molecular Devices, Order No. R7506), IMAP TR-FRET screening express (Molecular Devices, Order No. R8160, the TR-FRET component will not be used) and PDE 2A or PDE10 protein expressed upon baculovirus infection in SF9 cells. The cells were incubated after infection for ˜3 days and protein production was confirmed by Western Blot. The cells were collected by centrifugation and the pellet frozen in liquid nitrogen before it was resuspended in PBS containing 1% Triton X-100 and protease inhibitors. After 45 min incubation on ice, the cell debris was removed by centrifugation (13.000 rpm, 30 min). […] All reactions were performed in 384 well plates, Perkin Elmer black optiplates and IMAP reaction buffer with 0.1% Tween20 (kit component) Compounds were serial diluted in DMSO. […] Reaction is stopped by adding of 60 μl binding buffer for FP/cAMP (kit component).

PDE10 = PDE10 (Homo sapiens (Human), UniProt Q9Y233); test: Phosphodiesterase (PDE) 10 assay with fluorescent substrate (IMAP, fluorescence polarization); assay type: biochemical
PDE10, sequence (Q9Y233 whole entry): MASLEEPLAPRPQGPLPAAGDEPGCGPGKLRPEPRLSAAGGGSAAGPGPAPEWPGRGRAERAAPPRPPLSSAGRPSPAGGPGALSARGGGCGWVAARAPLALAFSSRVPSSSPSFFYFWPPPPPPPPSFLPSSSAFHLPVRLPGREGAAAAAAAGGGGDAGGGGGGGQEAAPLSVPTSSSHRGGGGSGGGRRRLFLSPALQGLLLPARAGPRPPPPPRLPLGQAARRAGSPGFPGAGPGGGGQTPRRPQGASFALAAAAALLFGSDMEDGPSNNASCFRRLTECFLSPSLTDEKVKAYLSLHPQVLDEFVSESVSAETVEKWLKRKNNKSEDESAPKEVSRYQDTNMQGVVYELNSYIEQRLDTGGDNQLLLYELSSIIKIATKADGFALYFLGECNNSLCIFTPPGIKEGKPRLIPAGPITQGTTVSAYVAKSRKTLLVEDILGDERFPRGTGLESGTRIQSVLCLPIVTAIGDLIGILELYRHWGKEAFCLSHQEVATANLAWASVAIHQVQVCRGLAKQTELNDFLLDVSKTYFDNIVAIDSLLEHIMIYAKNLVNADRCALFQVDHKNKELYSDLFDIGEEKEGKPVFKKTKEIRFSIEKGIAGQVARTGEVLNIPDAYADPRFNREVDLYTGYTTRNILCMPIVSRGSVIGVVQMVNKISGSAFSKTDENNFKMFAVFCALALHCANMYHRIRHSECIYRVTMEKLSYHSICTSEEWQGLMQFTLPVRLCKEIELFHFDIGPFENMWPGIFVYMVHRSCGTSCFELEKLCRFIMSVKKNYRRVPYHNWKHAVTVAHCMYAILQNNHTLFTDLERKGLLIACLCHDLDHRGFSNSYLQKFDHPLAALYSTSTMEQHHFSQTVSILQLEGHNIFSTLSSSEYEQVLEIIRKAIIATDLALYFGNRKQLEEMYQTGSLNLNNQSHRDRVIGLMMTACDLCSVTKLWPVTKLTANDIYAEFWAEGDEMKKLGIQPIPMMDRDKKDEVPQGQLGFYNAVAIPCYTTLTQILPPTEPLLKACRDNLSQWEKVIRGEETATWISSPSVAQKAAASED
Protocol: as §1

human MDR1 P-gp = test: Assessment of efflux in MDCK cells transfected with the human MDR1 gene (MDCK assay); assay type: in vitro ADME, canine; conditions: dog
Protocol: Assessment of Efflux in Madin-Darby Canine Kidney Cells Transfected with the Human MDR1 Gene (MDCK Assay)
Apparent permeability coefficients (PE) of the compounds across the MDCK-MDR1 cell monolayers are measured (pH 7.4, 37° C.) in apical-to-basal (AB) and basal-to-apical (BA) transport direction. AB permeability (PEAB) represents drug absorption from the blood into the brain and BA permeability (PEBA) drug efflux from the brain back into the blood via both passive permeability as well as active transport mechanisms mediated by efflux and uptake transporters that are expressed on the MDCK-MDR1 cells, predominantly by the overexpressed human MDR1 P-gp. The compounds are assigned to permeability/absorption classes by comparison of the AB permeabilities with the AB permeabilities of reference compounds with known in vitro permeability and oral absorption in the human. Identical or similar permeabilities in both transport directions indicate passive permeation, vectorial permeability points to additional active transport mechanisms. Higher PEBA than PEAB indicates the involvement of active efflux mediated by MDR1 P-gp. […]
MDCK-MDR1 cells (1-2×10e5 cells/1 cm2 area) are seeded on filter inserts (Costar transwell polycarbonate or PET filters, 0.4 μm pore size) and cultured (DMEM) for 7 days. […] Efflux ratio is calculated dividing the Papp (b-a) values by the Papp (a-b) values.

PDE 2A, sequence (O00408 whole entry, species assumed): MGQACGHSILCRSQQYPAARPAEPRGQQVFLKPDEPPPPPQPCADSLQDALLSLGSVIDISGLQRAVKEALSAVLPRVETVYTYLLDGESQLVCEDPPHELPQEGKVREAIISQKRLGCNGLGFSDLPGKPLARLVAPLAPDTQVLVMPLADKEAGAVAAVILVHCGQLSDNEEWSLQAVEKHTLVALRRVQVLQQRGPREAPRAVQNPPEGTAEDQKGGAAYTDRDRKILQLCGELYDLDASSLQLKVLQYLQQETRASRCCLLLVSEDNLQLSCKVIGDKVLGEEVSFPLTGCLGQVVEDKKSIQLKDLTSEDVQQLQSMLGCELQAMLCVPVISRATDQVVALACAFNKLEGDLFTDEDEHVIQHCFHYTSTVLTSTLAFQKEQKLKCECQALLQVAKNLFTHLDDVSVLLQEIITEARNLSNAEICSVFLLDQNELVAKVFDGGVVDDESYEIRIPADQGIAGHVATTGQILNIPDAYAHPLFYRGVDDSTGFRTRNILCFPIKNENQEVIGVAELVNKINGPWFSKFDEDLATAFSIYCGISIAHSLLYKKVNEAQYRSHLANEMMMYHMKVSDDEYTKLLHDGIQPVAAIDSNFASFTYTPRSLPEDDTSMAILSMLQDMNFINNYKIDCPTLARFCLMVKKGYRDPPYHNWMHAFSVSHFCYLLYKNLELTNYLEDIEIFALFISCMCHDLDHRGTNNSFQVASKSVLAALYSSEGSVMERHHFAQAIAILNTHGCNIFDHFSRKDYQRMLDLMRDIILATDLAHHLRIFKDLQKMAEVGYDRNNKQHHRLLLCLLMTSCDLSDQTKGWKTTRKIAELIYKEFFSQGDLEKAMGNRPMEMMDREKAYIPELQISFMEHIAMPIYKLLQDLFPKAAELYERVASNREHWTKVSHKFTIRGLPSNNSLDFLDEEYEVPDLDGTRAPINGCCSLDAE

## Cc1nn2cc(C3CC3)cnc2c1C(=O)NC1(c2ccc(C(F)(F)F)cn2)CCOCC1 [Example 25]
PDE 2A
  IC50: 0.088 µM
PDE10
  IC50: 9.07 µM
Human MDR1 P-gp; pH 7.4, MDCK-MDR1, Papp (b-a) divided by Papp (a-b)
  efflux ratio: 0.8
Human MDR1 P-gp; MDCK-MDR1, apical-to-basal, pH 7.4, 37° C.
  Papp A→B: 100 ×10⁻⁶ cm/s
